Measurements reported in patent publication US8802661B2, “C-28 amides of modified C-3 betulinic acid derivatives as HIV maturation inhibitors” (priority 2010, dated 2014).
Read-outs that look alike come from different tables or passages of the source.

Tested on: recombinant NL4-3 virus (Renilla luciferase in nef, Gag P373S)
Assay: HIV Cell Culture Assay (luciferase reporter virus in MT-2 cells)
Assay type: cell-based
In short: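 MT-2 cells in RPMI 1640 with 10% heat-inactivated FBS were infected with the reporter virus, made by transfecting the proviral clone into 293T cells, and cultured 4-5 days with serial inhibitor dilutions. Antiviral activity was quantified from Renilla luciferase activity measured in lysed cells.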

| SMILES | EC50 (NL43, read-out: EC50 Group) | EC50 (NL43) |
| --- | --- | --- |
| C=C(C)[C@@H]1CC[C@]2(C(=O)NCc3ncc[nH]3)CC[C@]3(C)[C@H](CC[C@@H]4[C@@]5(C)CC=C(c6ccc(C(=O)O)cc6)C(C)(C)[C@@H]5CC[C@]43C)[C@@H]12 [Example 43] | < 0.1 µM | – |
| C=C(C)[C@@H]1CC[C@]2(C(=O)NC(C)c3nnc(C)[nH]3)CC[C@]3(C)[C@H](CC[C@@H]4[C@@]5(C)CC=C(c6ccc(C(=O)O)cc6)C(C)(C)[C@@H]5CC[C@]43C)[C@@H]12 (stereo partly drawn) [Example 44, 4-((1R,3aS,5aR,5bR,7aR,11aS,11bR,13aR,13bR)-5a,5b,8,8,11a-pentamethyl-3a-(1-(5-methyl-4H-1,2,4-triazol-3-yl)ethylcarbamoyl)-1-(prop-1-en-2-yl)-2,3,3a,4,5,5a,5b,6,7,7a,8,11,11a,11b,12,13,13a,13b-octadecahydro-1H-cyclopenta[a]chrysen-9-yl)benzoic acid] | < 0.1 µM | – |
| C=C(C)[C@@H]1CC[C@]2(C(=O)NCc3nc4ccccc4s3)CC[C@]3(C)[C@H](CC[C@@H]4[C@@]5(C)CC=C(c6ccc(C(=O)O)cc6)C(C)(C)[C@@H]5CC[C@]43C)[C@@H]12 [Example 45, 4-((1R,3aS,5aR,5bR,7aR,11aS,11bR,13aR,13bR)-3a-(benzo[d]thiazol-2-ylmethylcarbamoyl)-5a,5b,8,8,11a-pentamethyl-1-(prop-1-en-2-yl)-2,3,3a,4,5,5a,5b,6,7,7a,8,11,11a,11b,12,13,13a,13b-octadecahydro-1H-cyclopenta[a]chrysen-9-yl)benzoic acid] | < 0.1 µM | – |
| C=C(C)[C@@H]1CC[C@]2(C(=O)NCCN3CCCC3=O)CC[C@]3(C)[C@H](CC[C@@H]4[C@@]5(C)CC=C(c6ccc(C(=O)O)cc6)C(C)(C)[C@@H]5CC[C@]43C)[C@@H]12 [Example 46, 4-((1R,3aS,5aR,5bR,7aR,11aS,11bR,13aR,13bR)-5a,5b,8,8,11a-pentamethyl-3a-(2-(2-oxopyrrolidin-1-yl)ethylcarbamoyl)-1-(prop-1-en-2-yl)-2,3,3a,4,5,5a,5b,6,7,7a,8,11,11a,11b,12,13,13a,13b-octadecahydro-1H-cyclopenta[a]chrysen-9-yl)benzoic acid] | < 0.1 µM | – |
| C=C(C)[C@@H]1CC[C@]2(C(=O)Nc3nc(C(=O)O)c(C)s3)CC[C@]3(C)[C@H](CC[C@@H]4[C@@]5(C)CC=C(c6ccc(C(=O)O)cc6)C(C)(C)[C@@H]5CC[C@]43C)[C@@H]12 [Example 47, 2-((1R,3aS,5aR,5bR,7aR,11aS,11bR,13aR,13bR)-9-(4-carboxyphenyl)-5a,5b,8,8,11a-pentamethyl-1-(prop-1-en-2-yl)-2,3,3a,4,5,5a,5b,6,7,7a,8,11,11a,11b,12,13,13a,13b-octadecahydro-1H-cyclopenta[a]chrysene-3a-carboxamido)-5-methylthiazole-4-carboxylic acid] | – | 0.0087 µM |
| C=C(C)[C@@H]1CC[C@]2(C(=O)Nc3ncc(C)s3)CC[C@]3(C)[C@H](CC[C@@H]4[C@@]5(C)CC=C(c6ccc(C(=O)O)cc6)C(C)(C)[C@@H]5CC[C@]43C)[C@@H]12 [Example 48, 4-((1R,3aS,5aR,5bR,7aR,11aS,11bR,13aR,13bR)-5a,5b,8,8,11a-pentamethyl-3a-(5-methylthiazol-2-ylcarbamoyl)-1-(prop-1-en-2-yl)-2,3,3a,4,5,5a,5b,6,7,7a,8,11,11a,11b,12,13,13a,13b-octadecahydro-1H-cyclopenta[a]chrysen-9-yl)benzoic acid] | < 0.1 µM | – |
| C=C(C)[C@@H]1CC[C@]2(C(=O)NCCC(=O)N3CCC(C(=O)O)CC3)CC[C@]3(C)[C@H](CC[C@@H]4[C@@]5(C)CC=C(c6ccc(C(=O)O)cc6)C(C)(C)[C@@H]5CC[C@]43C)[C@@H]12 [Example 49, 1-(3-((1R,3aS,5aR,5bR,7aR,11aS,11bR,13aR,13bR)-9-(4-carboxyphenyl)-5a,5b,8,8,11a-pentamethyl-1-(prop-1-en-2-yl)-2,3,3a,4,5,5a,5b,6,7,7a,8,11,11a,11b,12,13,13a,13b-octadecahydro-1H-cyclopenta[a]chrysene-3a-carboxamido)propanoyl)piperidine-4-carboxylic acid] | < 0.1 µM | – |
| C=C(C)[C@@H]1CC[C@]2(C(=O)Nc3ncc(C(=O)O)s3)CC[C@]3(C)[C@H](CC[C@@H]4[C@@]5(C)CC=C(c6ccc(C(=O)O)cc6)C(C)(C)[C@@H]5CC[C@]43C)[C@@H]12 [Example 50, 2-((1R,3aS,5aR,5bR,7aR,11aS,11bR,13aR,13bR)-9-(4-carboxyphenyl)-5a,5b,8,8,11a-pentamethyl-1-(prop-1-en-2-yl)-2,3,3a,4,5,5a,5b,6,7,7a,8,11,11a,11b,12,13,13a,13b-octadecahydro-1H-cyclopenta[a]chrysene-3a-carboxamido)thiazole-5-carboxylic acid] | < 0.1 µM | – |
| C=C(C)[C@@H]1CC[C@]2(C(=O)Nc3nncs3)CC[C@]3(C)[C@H](CC[C@@H]4[C@@]5(C)CC=C(c6ccc(C(=O)O)cc6)C(C)(C)[C@@H]5CC[C@]43C)[C@@H]12 [Example 51, 4-((1R,3aS,5aR,5bR,7aR,11aS,11bR,13aR,13bR)-3a-(1,3,4-thiadiazol-2-ylcarbamoyl)-5a,5b,8,8,11a-pentamethyl-1-(prop-1-en-2-yl)-2,3,3a,4,5,5a,5b,6,7,7a,8,11,11a,11b,12,13,13a,13b-octadecahydro-1H-cyclopenta[a]chrysen-9-yl)benzoic acid] | < 0.1 µM | – |
| C=C(C)[C@@H]1CC[C@]2(C(=O)NCCCN(C)C(C)=O)CC[C@]3(C)[C@H](CC[C@@H]4[C@@]5(C)CC=C(c6ccc(C(=O)O)cc6)C(C)(C)[C@@H]5CC[C@]43C)[C@@H]12 [Example 52, 4-((1R,3aS,5aR,5bR,7aR,11aS,11bR,13aR,13bR)-5a,5b,8,8,11a-pentamethyl-3a-(3-(N-methylacetamido)propylcarbamoyl)-1-(prop-1-en-2-yl)-2,3,3a,4,5,5a,5b,6,7,7a,8,11,11a,11b,12,13,13a,13b-octadecahydro-1H-cyclopenta[a]chrysen-9-yl)benzoic acid] | < 0.1 µM | – |
| C=C(C)[C@@H]1CC[C@]2(C(=O)NCCCNC(C)=O)CC[C@]3(C)[C@H](CC[C@@H]4[C@@]5(C)CC=C(c6ccc(C(=O)O)cc6)C(C)(C)[C@@H]5CC[C@]43C)[C@@H]12 [Example 53, 4-((1R,3aS,5aR,5bR,7aR,11aS,11bR,13aR,13bR)-3a-(3-acetamidopropylcarbamoyl)-5a,5b,8,8,11a-pentamethyl-1-(prop-1-en-2-yl)-2,3,3a,4,5,5a,5b,6,7,7a,8,11,11a,11b,12,13,13a,13b-octadecahydro-1H-cyclopenta[a]chrysen-9-yl)benzoic acid] | < 0.1 µM | – |
| CC(C)[C@@H]1CC[C@]2(C(=O)NCCc3ccccn3)CC[C@]3(C)[C@H](CC[C@@H]4[C@@]5(C)CC[C@H](c6ccc(C(=O)O)cc6)C(C)(C)[C@@H]5CC[C@]43C)[C@@H]12 [Example 54, 4-((1S,3aS,5aR,5bR,7aS,9S,11aS,11bR,13aR,13bR)-1-isopropyl-5a,5b,8,8,11a-pentamethyl-3a-(2-(pyridin-2-yl)ethylcarbamoyl)icosahydro-1H-cyclopenta[a]chrysen-9-yl)benzoic acid] | < 0.1 µM | – |
| CC(C)[C@@H]1CC[C@]2(C(=O)NCCN(C)C)CC[C@]3(C)[C@H](CC[C@@H]4[C@@]5(C)CC[C@H](c6ccc(C(=O)O)cc6)C(C)(C)[C@@H]5CC[C@]43C)[C@@H]12 [Example 55, 4-((1S,3aS,5aR,5bR,7aS,9S,11aS,11bR,13aR,13bR)-3a-(2-(dimethylamino)ethylcarbamoyl)-1-isopropyl-5a,5b,8,8,11a-pentamethylicosahydro-1H-cyclopenta[a]chrysen-9-yl)benzoic acid] | < 0.1 µM | – |
| C=C(C)[C@@H]1CC[C@]2(C(=O)N[C@H](C(=O)O)c3ccccc3)CC[C@]3(C)[C@H](CC[C@@H]4[C@@]5(C)CC=C(c6ccc(C(=O)O)cc6)C(C)(C)[C@@H]5CC[C@]43C)[C@@H]12 [Example 56, 4-((1R,3aS,5aR,5bR,7aR,11aS,11bR,13aR,13bR)-3a-((S)-carboxy(phenyl)methylcarbamoyl)-5a,5b,8,8,11a-pentamethyl-1-(prop-1-en-2-yl)-2,3,3a,4,5,5a,5b,6,7,7a,8,11,11a,11b,12,13,13a,13b-octadecahydro-1H-cyclopenta[a]chrysen-9-yl)benzoic acid] | < 0.1 µM | – |
| C=C(C)[C@@H]1CC[C@]2(C(=O)N[C@@H](C)C(=O)O)CC[C@]3(C)[C@H](CC[C@@H]4[C@@]5(C)CC=C(c6ccc(C(=O)O)cc6)C(C)(C)[C@@H]5CC[C@]43C)[C@@H]12 [Example 57, 4-((1R,3aS,5aR,5bR,7aR,11aS,11bR,13aR,13bR)-3a-((S)-1-carboxyethylcarbamoyl)-5a,5b,8,8,11a-pentamethyl-1-(prop-1-en-2-yl)-2,3,3a,4,5,5a,5b,6,7,7a,8,11,11a,11b,12,13,13a,13b-octadecahydro-1H-cyclopenta[a]chrysen-9-yl)benzoic acid] | – | 0.7 µM |
| C=C(C)[C@@H]1CC[C@]2(C(=O)N[C@@H](Cc3ccccc3)C(=O)O)CC[C@]3(C)[C@H](CC[C@@H]4[C@@]5(C)CC=C(c6ccc(C(=O)O)cc6)C(C)(C)[C@@H]5CC[C@]43C)[C@@H]12 [Example 58, 4-((1R,3aS,5aR,5bR,7aR,11aS,11bR,13aR,13bR)-3a-((S)-1-carboxy-2-phenylethylcarbamoyl)-5a,5b,8,8,11a-pentamethyl-1-(prop-1-en-2-yl)-2,3,3a,4,5,5a,5b,6,7,7a,8,11,11a,11b,12,13,13a,13b-octadecahydro-1H-cyclopenta[a]chrysen-9-yl)benzoic acid] | < 0.1 µM | – |
| C=C(C)[C@@H]1CC[C@]2(C(=O)N[C@@H](CC(C)C)C(=O)O)CC[C@]3(C)[C@H](CC[C@@H]4[C@@]5(C)CC=C(c6ccc(C(=O)O)cc6)C(C)(C)[C@@H]5CC[C@]43C)[C@@H]12 [Example 59, 4-((1R,3aS,5aR,5bR,7aR,11aS,11bR,13aR,13bR)-3a-((S)-1-carboxy-3-methylbutylcarbamoyl)-5a,5b,8,8,11a-pentamethyl-1-(prop-1-en-2-yl)-2,3,3a,4,5,5a,5b,6,7,7a,8,11,11a,11b,12,13,13a,13b-octadecahydro-1H-cyclopenta[a]chrysen-9-yl)benzoic acid] | < 0.1 µM | – |
